Key:
human S1P2 receptor = molecular target: T1, human S1P2 receptor (Homo sapiens, UniProt O95136); experiment: GTPγS binding assay (SPA), antagonism of S1P at S1P2; type: biochemical; conditions: GTP-γ-S binding assay, membranes of CHO cells expressing human S1P2, 5 nM S1P
T1 construct: expressed in transfected cells; host or cells: CHO cells (membrane preparation)
Experimental: The ability of compounds to antagonise S1P activity at S1P2 and S1P3 receptors was examined using GTPγS binding assays.
Membranes preparations were generated from CHO cells expressing either the human S1P2 or S1P3 receptors by homogenisation of the cell suspension and centrifugation at 40 000 g for 30 minutes at 4° C. The supernatant was removed, pellet re-suspended in a 10 mM HEPES, 10 mM EDTA buffer and centrifuged as above. The pellet was re-suspended and stored at −80° C. until use.
Scintillation proximity assay (SPA) technology was used for the GTPγS binding assays. Serial dilutions of test compounds were placed in a 96-well optiplate with 5 nM S1P, 1.25 μg membrane, 0.5 mg SPA beads, 0.3 μM GDP and 100 μM sodium orthovanidate, per well. The assay components were incubated for 2 hours to ensure equilibrium was attained. The assay was started by the addition of 300 pM [^35S]GTPγS per well and incubated for 60 minutes prior to centrifugation at 3000 rpm for 3 minutes and reading of a Packard TopCount.
Data were analysed using Activity Base (IDBS, UK) by fitting a four parameter logistic curve to generate IC50 values for each compound.

human S1P4 = molecular target: T2, human S1P4 (Homo sapiens, UniProt O95977); experiment: CHO Gα16 S1P4 intracellular Ca2+ (FLIPR) assay; type: cell-based; conditions: relative antagonism of S1P (EC80) induced Ca2+ change, CHO S1P4/Gα16 cells
T2 construct: expressed in transfected cells; host or cells: CHO (Chinese Hamster Ovary) S1P4/Gα16 cell clone
T2 sequence (O95977 1-384): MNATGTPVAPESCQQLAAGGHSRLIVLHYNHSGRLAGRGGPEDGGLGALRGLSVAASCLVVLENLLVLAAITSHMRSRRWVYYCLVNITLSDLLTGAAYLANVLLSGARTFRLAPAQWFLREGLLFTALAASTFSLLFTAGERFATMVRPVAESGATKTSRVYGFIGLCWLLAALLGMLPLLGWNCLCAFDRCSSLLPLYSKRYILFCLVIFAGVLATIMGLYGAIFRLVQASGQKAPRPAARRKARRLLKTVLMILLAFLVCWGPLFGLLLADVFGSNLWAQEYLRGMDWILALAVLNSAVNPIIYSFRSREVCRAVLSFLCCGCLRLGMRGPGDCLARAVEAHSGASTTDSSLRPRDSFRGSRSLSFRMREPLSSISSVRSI
Experimental: The cells are plated in 384 well black plates (10′000 cells per well). […] After washing, the cells are transferred to the FLIPR. […] This allows the determination of the maximal fluorescence (Fmax).

T1 sequence (O95136 whole entry): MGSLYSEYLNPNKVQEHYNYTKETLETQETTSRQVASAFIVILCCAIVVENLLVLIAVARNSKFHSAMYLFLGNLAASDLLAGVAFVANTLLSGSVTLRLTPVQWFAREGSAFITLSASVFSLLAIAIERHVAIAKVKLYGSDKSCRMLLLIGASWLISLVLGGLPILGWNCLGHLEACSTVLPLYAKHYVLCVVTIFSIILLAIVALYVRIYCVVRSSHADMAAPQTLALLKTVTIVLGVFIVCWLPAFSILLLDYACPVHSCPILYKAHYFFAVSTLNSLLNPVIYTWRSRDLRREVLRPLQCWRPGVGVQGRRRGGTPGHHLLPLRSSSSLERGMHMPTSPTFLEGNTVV

Row | SMILES | Kb (human S1P2 receptor) | IC50 (human S1P4)
1 | COc1cc(OC)c(NC(=O)Cn2c(=O)n(CC(=O)O)c(=O)c3ccccc32)cc1Cl [Example 1-1, {1-[(5-Chloro-2,4-dimethoxy-phenylcarbamoyl)-methyl]-2,4-dioxo-1,4-dihydro-2H-quinazolin-3-yl}-acetic acid] | 0.8 nM | –
2 | COc1cc(OC)c(NC(=O)Cn2c(=O)n(CC(=O)OC(C)(C)C)c(=O)c3ccccc32)cc1Cl [Example 1-37, {1-[(5-Chloro-2,4-dimethoxy-phenylcarbamoyl)-methyl]-2,4-dioxo-1,4-dihydro-2H-quinazolin-3-yl}-acetic acid tert butyl ester] | – | 880 nM
3 | COc1cc(OC)c(NC(=O)Cn2c(=O)n(CC(=O)NCCc3ccccc3)c(=O)c3ccccc32)cc1Cl [Example 1-35, 2-{1-[(5-Chloro-2,4-dimethoxy-phenylcarbamoyl)-methyl]-2,4-dioxo-1,4-dihydro-2H-quinazolin-3-yl}-N-phenethyl-acetamide] | – | 15 nM
4 | COc1cc(OC)c(NC(=O)Cn2c(=O)n(CC(=O)NCCc3cccnc3)c(=O)c3ccccc32)cc1Cl [Example 1-13, N-(5-Chloro-2,4-dimethoxy-phenyl)-2-{2,4-dioxo-3-[(2-pyridin-3-yl-ethylcarbamoyl)-methyl]-3,4-dihydro-2H-quinazolin-1-yl}-acetamide] | 1.9 nM | –

The next lines start with the values.

Row | Kb (human S1P2 receptor) | IC50 (human S1P4) | SMILES
5 | 3.6 nM | – | COc1cc(OC)c(NC(=O)Cn2c(=O)n(-c3ccc(CC(=O)NCCc4ccccc4)cc3)c(=O)c3ccccc32)cc1Cl [Example 2-1, 2-(4-{1-[(5-Chloro-2,4-dimethoxy-phenylcarbamoyl)-methyl]-2,4-dioxo-1,4-dihydro-2H-quinazolin-3-yl}-phenyl)-N-phenethyl-acetamide]
6 | 4.8 nM | – | CCOc1ccc(C(=O)Cn2c(=O)n(CCCC(=O)NC3CCCC3)c(=O)c3cc(Cl)ccc32)cc1Cl [Compound 3-4, 4-{6-Chloro-1-[2-(3-chloro-4-ethoxy-phenyl)-2-oxo-ethyl]-2,4-dioxo-1,4-dihydro-2H quinazolin-3-yl}-N-cyclopentyl-butyramide]
